From patent US7687473B2, “5-amino-4-imidazolecarboxamide riboside and its nucleobase as potentiators of antifolate transport and metabolism” (Health Research, Inc., priority 2005, dated 2010)

What was measured:
[1] = test system: CCRF-CEM cells; assay: Protein-bound intracellular [3H]MTX; assay type: cell-based, human
Method: The cell pellet was frozen immediately at less than or equal to −80 degrees C. To process, 1 ml iced lysis buffer was added to the pellet immediately after removal from the freezer and the pellet was dispersed with a pasteur pipette. Freshly made lysis buffer contained (final concentrations): 50 mM citric-citrate, pH 6.0, 50 mM 2-mercaptoethanol, 50 μM NADPH (in 25 mM Tris, pH7.5), and 2 mg/ml bovine serum albumin. The sample was freeze-thawed once in dry ice-methanol, centrifuged at 1860×g for 10 min to remove debris and then further clarified by centrifugation through an Amicon MPS-1 filter unit. A 5 ml centrifugal column was prepared at 4 degrees C. in a 5 ml plastic syringe plugged with a porous plastic frit overlaid with a GF/C glass fiber filter cut with a #8 cork borer, then packed with Sephadex G-25 (Medium) in 50 mM citric-citrate, pH 6.0 to the 5 ml line, and centrifuged 5 min at 1000×g (0°) to expel liquid. The clarified supernatant (0.5 ml) was applied to the top of the column, the column was re-centrifuged at 1000×g (5 min) and the pass-through was collected in a 7 ml scintillation vial. After addition of scintillation fluid (5.5 ml), the sample was quantitated by liquid scintillation counting.

[2] = test system: CCRF-CEM cells; assay: Subcellular localization of [3H]MTX; assay type: cell-based, human
Method: Subcellular fractionation. […] Cells were diluted 9-fold in iced 0.9% NaCl, centrifuged at 1000×g for 5 min and washed once with 40 ml iced saline. All subsequent steps were performed at 4°. Cells were homogenized as previously described, except that hypotonic buffer at 20-fold the packed cell volume was used, and the homogenate was centrifuged for 6 min at 1000×g to yield a nuclear pellet (also containing unlysed cells and large debris) and a post-nuclear supernatant (PNS). Based on controls using nonradiolabeled cells, >91% of the cells would be lysed during homogenization. The PNS was centrifuged at 17,000×g to yield a combined mitochondria-lysosome pellet. The resulting supernatant was centrifuged at 100,000×g for 60 min to yield the 100,000×g supernatant (cytosol). The 100,000×g pellet (microsomes) and the combined mitochondria-lysosome pellet were each washed in isotonic buffer and centrifuged at their respective g-forces. All pellets were solubilized in 0.3% Triton X-100 by incubating at 37° for 1 hr; 1 ml was transferred to a scintillation vial for quantitation. Triton X-100 was added to the cytosol to a final concentration of 0.3% and a 1 ml aliquot was quantitated. Radioactivity in each fraction was corrected for a blank containing 0.3% Triton X-100.

[3] = human, in vivo; cited from earlier work
[4] = test system: CCRF-CEM cells; assay: [3H]leucovorin uptake in CCRF-CEM cells; assay type: cell-based, human; conditions: pre-incubation with Z alone, 1 μM [3H]LV
Method: Quantitation of folate and antifolate uptake. The method is essentially as follows. Briefly, logarithmically growing (3-5×10^5/ml) CCRF-CEM cells were harvested at room temperature by centrifugation at 1000×g for 5 min. After washing with the appropriate medium, cells were suspended at ≈2×10^7 cells/ml for use in transport studies. […] Anion-free MHS contains 250 mM sucrose and 20 mM HEPES, titrated to pH 7.4 with MgO. […] Uptake was measured as a function of time for 30 min (for rate and extent measurements) or over 5 min (studies requiring initial velocities). […] Uptake was terminated by diluting 100 μL samples into 1 ml of iced 0.9% NaCl. […] The supernatant was aspirated. The cell pellet was washed once with 1 ml iced 0.9% NaCl and centrifuged as above. The washed pellet was solubilized in 1 ml of 0.3% Triton X-100 by incubation for 60 min at 37° C. The solubilized pellet was transferred to a scintillation vial, 10 ml of Liquiscint (National Diagnostics, Atlanta, Ga.) was added and radioactivity was quantitated in a Beckman Model LS6500 liquid scintillation counter. Separate samples at the longest incubation time used in a particular experiment were harvested for HPLC analysis of intracellular contents as above, except that after the second wash the pellets were extracted with 1 ml boiling 0.1 M Na-phosphate, pH 5.5. The extract was clarified by centrifugation and the supernatant was filtered through an MPS-1 filter unit (Amicon) prior to HPLC analysis.

[5] = test system: araC 8C subline of CCRF-CEM; assay: [3H]MTX uptake in es-deficient araC 8C subline; assay type: cell-based, human; conditions: 30 min time course ±Z
Method: Z potentiation was evaluated: (1) in a subline of CCRF-CEM (araC 8C) deficient in the es (or ENT1) facilitated diffusion nucleoside transport system (this is the only nucleoside transporter present in CCRF-CEM cells); and (2) in the presence of specific inhibitors of the es nucleoside transporter. […] Note that potentiation by Z is large in these studies because they were performed in HBSS to avoid binding of inhibitors by serum proteins and Z potentiation is higher in HBSS than in RPMI1640. […] Concentration-dependence studies are proposed to quantitate the potency of each inhibitor (IC50).

[6] = test system: dCK-deficient subline of CCRF-CEM; assay: [3H]MTX uptake in deoxycytidine kinase-deficient subline; assay type: cell-based, human; conditions: compared to parental CCRF-CEM
Method: Z metabolism by deoxycytidine kinase is not essential for Z potentiation. These experiments were conducted to determine if Z itself can cause potentiation orf needs to be metabolized to exert its effect. For these experiments, a deoxycytidine kinase (dCK)-deficient subline of CCRF-CEM was used. Although designated as dCK, this enzyme also phosphorylates the purines deoxyadenosine, deoxyguanosine, and fludarabine. Use of this subline allowed us to test the hypothesis that phosphorylation of Z to ZMP by dCK is essential for potentiation. […] Thus it appears that dCK is not absolutely required for Z potentiation, but may contribute to the metabolism.

[7] = test system: R2 clones transfected with human RFC expression plasmid; assay: [3H]MTX transport in RFC-transfected R2 clones; assay type: cell-based
Method: To further confirm the involvement of RFC, we transfected the RFC-negative R2 subline of CCRF-CEM with a human RFC expression plasmid. Stably expressing clones were selected in 2 nM leucovorin (LV)-containing RPMI 1640 medium (R2 cannot replicate in this medium, while parental RFC-expressing CCRF-CEM can replicate). […] This supports RFC as mediating the transport potentiated by Z.

| SMILES | Protein-bound MTX level at 30 min ([1]; absence of Z) | Protein-bound MTX level at 30 min ([1]; presence of 0.5 mM Z) | Cytosol material that is MTX or metabolites (HPLC) [2] | Radioactivity that is cytosolic, post-nuclear supernatant only ([2]; nuclear pellet excluded) | Total recovered radioactivity in the cytosolic fraction ([2]; ±Z) | Toxicity in clinical trials [3] | Potentiation of [3H]LV uptake [4] | Potentiation of [3H]MTX uptake in araC 8C subline [5] | Potentiation of [3H]MTX uptake in dCK-deficient subline [6] | Potentiation of [3H]MTX transport in RFC-transfected clones compared with CCRF-CEM [7] |
| --- | --- | --- | --- | --- | --- | --- | --- | --- | --- | --- |
| CN(Cc1cnc2nc(N)nc(N)c2n1)c1ccc(C(=O)N[C@@H](CCC(=O)O)C(=O)O)cc1 [MTX, 4-amino-10-methylpteroylglutamic acid] | 6.4±0.1 pmol/10^7 cells | 5.4±0.4 pmol/10^7 cells | > 90% | > 98% | More than 91% | – | – | – | – | – |
| NC(=O)c1ncn([C@@H]2O[C@H](CO)[C@@H](O)[C@H]2O)c1N [Z, 5-amino-4-imidazolecarboxamide riboside] | – | – | – | – | – | nontoxic | does not potentiate | no potentiation | showed potentiation by Z, although to a slightly lower level | potentiated by Z to a similar extent |
